This is an account of results in patent US12351580B2, “NLRP3 modulators” (Innate Tumor Immunity, Inc., priority 2017, dated 2025).

The target of this experiment is T1, TLR7 (Homo sapiens, UniProt Q9NYK1).
T1 construct: host or cells: HEK-Blue cells (human HEK) co-expressing TLR7 and an NF-kB/AP1-inducible SEAP reporter
T1 sequence (Q9NYK1 27-1049): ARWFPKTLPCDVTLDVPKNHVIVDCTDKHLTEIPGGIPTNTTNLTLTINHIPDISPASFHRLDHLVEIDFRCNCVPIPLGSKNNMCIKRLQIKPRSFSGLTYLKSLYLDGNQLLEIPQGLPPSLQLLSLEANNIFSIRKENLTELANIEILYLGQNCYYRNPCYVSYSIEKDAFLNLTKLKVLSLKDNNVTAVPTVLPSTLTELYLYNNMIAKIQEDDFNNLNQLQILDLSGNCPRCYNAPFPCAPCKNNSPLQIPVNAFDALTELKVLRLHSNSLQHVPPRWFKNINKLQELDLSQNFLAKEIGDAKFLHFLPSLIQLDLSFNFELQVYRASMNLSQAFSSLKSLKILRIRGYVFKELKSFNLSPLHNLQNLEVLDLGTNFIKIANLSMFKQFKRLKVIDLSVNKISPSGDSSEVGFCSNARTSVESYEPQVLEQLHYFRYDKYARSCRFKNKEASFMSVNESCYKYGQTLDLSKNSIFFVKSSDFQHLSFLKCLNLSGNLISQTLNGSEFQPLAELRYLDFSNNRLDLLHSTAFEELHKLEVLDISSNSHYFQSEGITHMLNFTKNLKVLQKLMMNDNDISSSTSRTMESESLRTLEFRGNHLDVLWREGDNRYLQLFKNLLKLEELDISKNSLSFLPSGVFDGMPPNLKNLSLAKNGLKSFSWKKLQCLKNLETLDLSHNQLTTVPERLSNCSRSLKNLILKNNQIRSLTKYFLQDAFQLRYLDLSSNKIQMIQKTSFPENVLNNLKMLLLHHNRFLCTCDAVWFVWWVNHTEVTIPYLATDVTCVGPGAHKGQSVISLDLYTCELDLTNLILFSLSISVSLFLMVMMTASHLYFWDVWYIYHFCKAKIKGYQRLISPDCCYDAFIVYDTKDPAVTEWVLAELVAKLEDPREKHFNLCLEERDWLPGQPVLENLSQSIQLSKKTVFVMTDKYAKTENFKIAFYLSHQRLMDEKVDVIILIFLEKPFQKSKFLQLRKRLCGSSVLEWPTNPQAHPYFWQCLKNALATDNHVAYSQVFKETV
Put plainly: In vitro human TLR7 binding reporter assay (HEK-Blue, NF-kB/AP1-inducible SEAP). The class given is cell-based. The gist of the method:
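Reporter cells are plated at 15,000 per well and rested 24 h. Next day, test compounds or DMSO are dispensed, followed by 18 h incubation at 37 °C, 5% CO2.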
On the technique in general: In a reporter assay the amount or activity of a reporter protein is the signal.

On to `COc1ccc(Cn2c(CN3C(=O)OCC3COCc3ccccc3)nc3c(N)nc4cc(-c5cc[nH]n5)ccc4c32)cc1` (centres unmarked) [Compound 404], for which the EC50 (activity range symbols) is greater than 100 µM. For the molecule `COC(=O)N(C)Cc1nc2c(N)nc3cc(-c4cc[nH]n4)ccc3c2[nH]1` [Compound 405], under “activity range symbols”, the EC50 was greater than 100 µM. Where the note is “activity range symbols”, `CCN(Cc1nc2c(N)nc3cc(-c4cc[nH]n4)ccc3c2[nH]1)C(=O)OC` [Compound 406] yielded an EC50 greater than 100 µM.

Take `Nc1nc2cc(-c3cc[nH]n3)ccc2c2[nH]c(CN3C[C@@H](c4ccccc4)CC3=O)nc12` [Compound 407]: the EC50 (activity range symbols) is greater than 100 µM. On to `Nc1nc2cc(-c3cc[nH]n3)ccc2c2[nH]c(CN3C[C@H](c4ccccc4)CC3=O)nc12` [Compound 408], for which the EC50 (activity range symbols) was greater than 100 µM. Take `COc1ccc(Cn2c(CN3C(=O)OCC3c3ccccc3)nc3c(N)nc4cc(-c5cc[nH]n5)ccc4c32)cc1` (centres unmarked) [Compound 409]: under “activity range symbols”, the EC50 is greater than 100 µM.

For the setting “activity range symbols”, `COc1ccc(Cn2c(Cn3cnccc3=O)nc3c(N)nc4cc(-c5cc[nH]n5)ccc4c32)cc1` [Compound 414] yielded an EC50 greater than 100 µM. In turn, `CCN(Cc1nc2c(N)nc3cc(-c4cc[nH]n4)ccc3c2[nH]1)C(=O)C1COC1` [Compound 417] came in with a 50% effective concentration (EC50) (activity range symbols) greater than 100 µM.

Turning to `CCN(Cc1nc2c(N)nc3cc(-c4ccsc4)ccc3c2[nH]1)C(C)=O` [Compound 419, N-((4-Amino-7-(thiophen-3-yl)-1H-imidazo[4,5-c]quinolin-2-yl)methyl)-N-ethylacetamide], the EC50 (activity range symbols) was greater than 100 µM.

As to `CCN(Cc1nc2c(N)nc3cc(-c4cc[nH]n4)ccc3c2n1C)C(=O)OC(C)(C)C` [Compound 420], the concentration for a half-maximal effect (EC50) (activity range symbols) was greater than 100 µM. The molecule `CCN(Cc1nc2c(N)nc3cc(-c4ccc(C)cc4)ccc3c2[nH]1)C(C)=O` [Compound 422] yielded an EC50 (numeric bounds) greater than 10 µM. In turn, `Nc1nc2cc(-n3cccn3)ccc2c2[nH]c(CN3CCCCC3=O)nc12` [Compound 423] displayed an EC50 (activity range symbols) greater than 100 µM. Take `CCN(Cc1nc2c(N)nc3cc(-c4cncc(F)c4)ccc3c2[nH]1)C(C)=O` [Compound 427]: the EC50 (activity range symbols) was greater than 100 µM. `CCN(Cc1nc2c(N)nc3cc(Br)ccc3c2n1CC(C)C)C(C)=O` [Compound 430] yielded an EC50 (activity range symbols) greater than 100 µM.

Consider `CCN(Cc1nc2c(N)nc3cc(Br)ccc3c2n1CCCOC)C(C)=O` [Compound 431], for which, for the setting “activity range symbols”, the EC50 is greater than 100 µM. Take `N#Cc1ccc(-c2ccc3c(c2)nc(N)c2nc(CN4CCCC4=O)[nH]c23)cc1` [Compound 434]: the EC50 (numeric bounds) was greater than 30 µM. As to `CCOC(=O)N(CC)Cc1nc2c(N)nc3cc(-c4cc[nH]n4)ccc3c2[nH]1` [Compound 436, Ethyl N-{[4-amino-7-(1H-pyrazol-3-yl)-1H-imidazo[4,5-c]quinolin-2-yl]methyl}-N-ethylcarbamate], under “numeric bounds”, the EC50 is greater than 50 µM. The molecule `CCN(Cc1nc2c(N)nc3cc(-c4cc[nH]n4)ccc3c2[nH]1)C(=O)Cc1cccc(C)c1` [Compound 437, N-{[4-amino-7-(1H-pyrazol-3-yl)-1H-imidazo[4,5-c]quinolin-2-yl]methyl}-N-ethyl-2-(3-methylphenyl)acetamide] registered an EC50 (activity range symbols) greater than 100 µM. As to `CCN(Cc1nc2c(N)nc3cc(-c4cc[nH]n4)ccc3c2[nH]1)C(=O)c1cccnc1` [Compound 438, N-{[4-amino-7-(1H-pyrazol-3-yl)-1H-imidazo[4,5-c]quinolin-2-yl]methyl}-N-ethylpyridine-3-carboxamide], under “activity range symbols”, the half-maximal effective concentration (EC50) was greater than 100 µM. Consider `CCN(Cc1nc2c(N)nc3cc(-c4cc[nH]n4)ccc3c2[nH]1)C(=O)c1ccccn1` [Compound 439, N-{[4-amino-7-(1H-pyrazol-3-yl)-1H-imidazo[4,5-c]quinolin-2-yl]methyl}-N-ethylpyridine-2-carboxamide], for which the EC50 (activity range symbols) was greater than 100 µM. The same measure, in the same setting: then `CCN(Cc1nc2c(N)nc3cc(-c4cc[nH]n4)ccc3c2[nH]1)C(=O)CC(C)(C)O` [Compound 440, N-{[4-amino-7-(1H-pyrazol-3-yl)-1H-imidazo[4,5-c]quinolin-2-yl]methyl}-N-ethyl-3-hydroxy-3-methylbutanamide], with greater than 100 µM. For the molecule `CCN(Cc1nc2c(N)nc3cc(-c4cc[nH]n4)ccc3c2[nH]1)C(=O)c1ccc(OC)cc1` [Compound 441, N-{[4-amino-7-(1H-pyrazol-3-yl)-1H-imidazo[4,5-c]quinolin-2-yl]methyl}-N-ethyl-4-methoxybenzamide], the EC50 (activity range symbols) is greater than 100 µM. Regarding `CCN(Cc1nc2c(N)nc3cc(-c4cc[nH]n4)ccc3c2[nH]1)C(=O)c1cnccn1` [Compound 442, N-{[4-amino-7-(1H-pyrazol-3-yl)-1H-imidazo[4,5-c]quinolin-2-yl]methyl}-N-ethylpyrazine-2-carboxamide], the EC50 (activity range symbols) was greater than 100 µM.

As to `CCN(Cc1nc2c(N)nc3cc(-c4cc[nH]n4)ccc3c2[nH]1)C(=O)Cc1ccccc1` [Compound 443, N-{[4-amino-7-(1H-pyrazol-3-yl)-1H-imidazo[4,5-c]quinolin-2-yl]methyl}-N-ethyl-2-phenylacetamide], the EC50 (activity range symbols) was greater than 100 µM. Regarding `CCN(Cc1nc2c(N)nc3cc(-c4cc[nH]n4)ccc3c2[nH]1)C(=O)CCCc1ccccc1` [Compound 444, N-{[4-amino-7-(1H-pyrazol-3-yl)-1H-imidazo[4,5-c]quinolin-2-yl]methyl}-N-ethyl-4-phenylbutanamide], the EC50 (activity range symbols) was greater than 100 µM.

`CCN(Cc1nc2c(N)nc3cc(-c4cc[nH]n4)ccc3c2[nH]1)C(=O)CCC(C)C` [Compound 445, N-{[4-amino-7-(1H-pyrazol-3-yl)-1H-imidazo[4,5-c]quinolin-2-yl]methyl}-N-ethyl-4-methylpentanamide] had an EC50 (activity range symbols) greater than 100 µM. Turning to `CCN(Cc1nc2c(N)nc3cc(-c4cc[nH]n4)ccc3c2[nH]1)C(=O)c1cccn1C` [Compound 446, N-{[4-amino-7-(1H-pyrazol-3-yl)-1H-imidazo[4,5-c]quinolin-2-yl]methyl}-N-ethyl-1-methyl-1H-pyrrole-2-carboxamide], the EC50 (activity range symbols) was greater than 100 µM. Take `CCN(Cc1nc2c(N)nc3cc(-c4cc[nH]n4)ccc3c2[nH]1)C(=O)CCc1ccccc1` [Compound 447, N-{[4-amino-7-(1H-pyrazol-3-yl)-1H-imidazo[4,5-c]quinolin-2-yl]methyl}-N-ethyl-3-phenylpropanamide]: the EC50 (activity range symbols) was greater than 100 µM.

For the molecule `CCN(Cc1nc2c(N)nc3cc(-c4cc[nH]n4)ccc3c2[nH]1)C(=O)c1ccccc1Cl` [Compound 449, N-{[4-amino-7-(1H-pyrazol-3-yl)-1H-imidazo[4,5-c]quinolin-2-yl]methyl}-2-chloro-N-ethylbenzamide], the EC50 (activity range symbols) was greater than 100 µM. `CCN(Cc1nc2c(N)nc3cc(-c4cc[nH]n4)ccc3c2[nH]1)C(=O)c1ccncc1` [Compound 450, N-{[4-amino-7-(1H-pyrazol-3-yl)-1H-imidazo[4,5-c]quinolin-2-yl]methyl}-N-ethylpyridine-4-carboxamide]: the EC50 (activity range symbols) is greater than 100 µM. In turn, `CCN(Cc1nc2c(N)nc3cc(-c4cc[nH]n4)ccc3c2[nH]1)C(=O)c1cn(C)c2ccccc12` [Compound 451, N-{[4-amino-7-(1H-pyrazol-3-yl)-1H-imidazo[4,5-c]quinolin-2-yl]methyl}-N-ethyl-1-methyl-1H-indole-3-carboxamide] displayed an EC50 (activity range symbols) greater than 100 µM. In turn, `CCN(Cc1nc2c(N)nc3cc(-c4cc[nH]n4)ccc3c2[nH]1)C(=O)c1ccc(Cl)cc1` [Compound 452, N-{[4-amino-7-(1H-pyrazol-3-yl)-1H-imidazo[4,5-c]quinolin-2-yl]methyl}-4-chloro-N-ethylbenzamide] showed an EC50 (activity range symbols) greater than 100 µM.

A word on the EC50: it is the concentration that produces a half-maximal response.
